Assay results published in patent publication US20230293475A1, “METHODS OF PROVIDING SO[…] TO SUBJECTS WITH IMPAIRED RENAL FUNCTION” (Axsome Malta Ltd., priority 2020, published 2023).

What was measured:
[1] = Phase 1 study, removal of solriamfetol by 4-hour hemodialysis in ESRD; type: in vivo, human
Description: (§1) Groups 1-4 received one dose of solriamfetol HCl (89.3 mg; equivalent to 75-mg solriamfetol) on day 1; Group 5 received one dose equivalent to 75-mg dose on day 1 followed by 4-hour hemodialysis (designated Group 5.2), and one dose equivalent to 75-mg solriamfetol on day 8 without hemodialysis (designated Group 5.1). All doses were administered on an empty stomach following an overnight fast except for participants in Group 5, who received a standardized snack on day 7 and breakfast early on day 8 before starting an 8-hour fast. Participants remained fasting for 4 hours after administration, with water allowed except for 1 hour before and after dosing.
Urine samples were collected predose and for the time intervals of 0-4, 4-8, 8-12, 12-24, and 24-48 hours in Groups 1-3, with additional collection for the 48-72 hour time interval in Groups 4 and 5. During the hemodialysis period on day 1 for Group 5, dialysate samples and pre- and post-dialyzer paired blood samples were collected at pre-dialysis (2 hours), and at 3, 4, 5, and 6 hours following dosing. […]
Bioanalytical analyses were performed by a central laboratory (KCAS, LLC, Shawnee, Kansas) using validated proprietary methods that included extraction/derivatization and liquid chromatography-tandem mass spectrometry (LC-MS/MS). […] Assay performance was monitored by spiking blank interference free human plasma with positive controls and internal standards to generate standard curve and quality control samples. […] Quantification was based on setting a calibration graph using the internal standard method. […]
The following plasma PK parameters were evaluated using non-compartmental analysis in Phoenix® WinNonlin® Version 6.3: Cmax; time to reach Cmax following drug administration (tmax); t½; area under the plasma concentration-time curve from time zero to time of last quantifiable concentration (AUCt); AUC from time zero to infinity (AUC∞); apparent total clearance of the drug from plasma after oral administration (CL/F); and apparent volume of distribution (Vd/F). […]

[2] = Phase 1 single-dose study, safety (treatment-emergent adverse events); type: in vivo, human
Description: In healthy subjects with normal renal function, solriamfetol HCl is renally excreted ~90% unchanged within 48 hours of administration. Thus, renal impairment, as well as hemodialysis in individuals with end-stage renal disease (ESRD), could affect the PK of solriamfetol HCl. To ascertain the precise impact of renal impairment and hemodialysis on pharmacokinetics and safety of solriamfetol RCl, a Phase 1, parallel-group, open-label, single-dose study was conducted at 2 U.S. sites. The protocol was approved by the IntegReview Institutional Review Board (Austin, Texas), and the study was conducted in compliance with the protocol, the Guideline for Good Clinical Practice E6; the US Code of Federal Regulations pertaining to conduct and reporting of clinical studies; the Clinical Trials Directive of the European Medicines Agency (Directive 2001/20/EC); and the Declaration of Helsinki. Written informed consent was obtained from each subject before enrollment in the study and before performance of any study-related procedure. See, also, Zomorodi K, Chen D, Lee L, Lasseter K, Marbury T. An Open-Label, Single-Dose, Phase 1 Study of the Pharmacokinetics and Safety of JZP-110 in Subjects With Normal or Impaired Renal Function and With End-Stage Renal Disease Requiring Hemodialysis [abstract]. Sleep. 2017;40 (suppl):A382-383.
Eligible participants were assigned to 1 of 5 groups according to renal disease status as measured by the estimated glomerular filtration rate (eGFR) on the day prior to dosing, calculated using the Modification in Diet in Renal Disease equation. Group 1 consisted of healthy participants with normal renal function (eGFR ≥ 90 mL/min/1.73 m^2) and served as the control group. Groups 2, 3, and 4 had mild, moderate, and severe renal impairment based on eGFRs of 60-89, 30-59, and < 30 mL/min/1.73 m^2, respectively. Group 5 consisted of participants with ESRD who required ≥ 3 hemodialysis treatments per week for the preceding 3 months. […] Group 1 was enrolled last to facilitate matching the mean age, BMI, and sex distribution of Groups 2-5.
as §1

[3] = 12-week placebo-controlled trials comparing various doses; cited from earlier work
[4] = Group 1 normal renal function (n = 6), single 75-mg dose
[5] = Group 2 mild renal impairment (n = 6), single 75-mg dose
[6] = Group 3 moderate renal impairment (n = 6), single 75-mg dose
[7] = Group 4 severe renal impairment (n = 6), single 75-mg dose
[8] = Group 5.1 ESRD without hemodialysis (n = 6), single 75-mg dose
[9] = Group 5.2 ESRD with hemodialysis (n = 7), single 75-mg dose

NC(=O)OC[C@H](N)Cc1ccccc1 [solriamfetol, [R]-2-amino-3-phenylpropylcarbamate]
hemodialysis clearance, lower than renal clearance in normal renal function [1]: approximately 30%
clearance ([1]; both sexes, human, dialysate, oral, 75 mg, day 1): 207 mL/min
cumulative fraction of the 75-mg dose removed over the 4-hour hemodialysis period, mean ([1]; day 1): 20.6%
aspartate aminotransferase (AST), increase to ([2]; 1 participant, Group 5, 6 days after dosing, reference range 8-40 IU/L): 66 IU/L
alanine aminotransferase (ALT), increase to ([2]; 1 participant, Group 5, 6 days after dosing, reference range 8-54 IU/L): 144 IU/L
ALT increased, number (%) of participants [2, 4]: 0
AST increased, number (%) of participants [2, 4]: 0
Any TEAE, number (%) of participants [2, 4]: 0
Headache, number (%) of participants [2, 4]: 0
Nausea, number (%) of participants [2, 4]: 0
Skin abrasion, number (%) of participants [2, 4]: 0
ALT increased, number (%) of participants [2, 5]: 0
AST increased, number (%) of participants [2, 5]: 0
Any TEAE, number (%) of participants [2, 5]: 1 (17%)
Headache, number (%) of participants [2, 5]: 0
Nausea, number (%) of participants [2, 5]: 0
Skin abrasion, number (%) of participants [2, 5]: 1 (17%)
ALT increased, number (%) of participants [2, 6]: 0
AST increased, number (%) of participants [2, 6]: 0
Any TEAE, number (%) of participants [2, 6]: 1 (17%)
Headache, number (%) of participants [2, 6]: 1 (17%)
Nausea, number (%) of participants [2, 6]: 0
Skin abrasion, number (%) of participants [2, 6]: 0
ALT increased, number (%) of participants [2, 7]: 0
AST increased, number (%) of participants [2, 7]: 0
Any TEAE, number (%) of participants [2, 7]: 0
Headache, number (%) of participants [2, 7]: 0
Nausea, number (%) of participants [2, 7]: 0
Skin abrasion, number (%) of participants [2, 7]: 0
ALT increased, number (%) of participants [2, 8]: 0
AST increased, number (%) of participants [2, 8]: 0
Any TEAE, number (%) of participants [2, 8]: 1 (17%)
Headache, number (%) of participants [2, 8]: 0
Nausea, number (%) of participants [2, 8]: 1 (17%)
Skin abrasion, number (%) of participants [2, 8]: 0
ALT increased, number (%) of participants [2, 9]: 1 (14%)
AST increased, number (%) of participants [2, 9]: 1 (14%)
Any TEAE, number (%) of participants [2, 9]: 1 (14%)
Headache, number (%) of participants [2, 9]: 0
Nausea, number (%) of participants [2, 9]: 0
Skin abrasion, number (%) of participants [2, 9]: 0
participants reporting treatment-emergent adverse events, total ([2]; all groups, 31 participants (13%)): 4
deaths or other serious AEs ([2]; all groups, single 75-mg dose): no deaths or other serious AEs
severity of all TEAEs as considered by the investigator ([2]; all groups, single 75-mg dose): mild
vital sign and ECG measurements ([2]; all groups, single 75-mg dose): No clinically significant abnormal findings
adverse effects (headache, nausea, decreased appetite, anxiety and others), dependence on dose [3]: dose-dependent
